Test results taken from US11103525B2, “Idoxuridine and its analogs as neuroprotectans for the treatment of parkinsonism” (priority 2017, dated 2021).

Key:
Assay type in all cases: cell-based, mouse
WT cells = experiment: Cytoprotection against H2O2, WT cells; details: in-well H2O2 0.00025%
Excerpt: FIG. 10: Cytoprotection of Idoxuridine against […]. H2O2 reduces cell viability by increasing oxidative stress. This effect was counteracted by idoxuridine in GPR37-tGFP overexpressing cells (A) and WT (B) cells. […] In-well H2O2 concentration used was 0.00025%. […]

N2a-WT cells = experiment: Cytoprotection against 6-OHDA (MTT assay), N2a-WT cells; details: 2 μM pretreatment 72 h, then 6-OHDA 24 h
Protocol: (§1) FIG. 6. GPR37-associated cytoprotection of Idoxuridine against parkinsonian drug 6-OHDA. N2a-WT and N2a-GPR37-tGFP cells were grown in differentiating medium containing either 2 μM idoxuridine, 0.1% DMSO (negative control) or 1 mM dbcAMP (positive control). 72 h later cells were treated with either 6-OHDA (10, 20, 35 100 μM) or vehicle control and incubated for 24 h. Cell viability was quantified by MTT assay. Data are pooled from three independent experiments with 6 technical replicates for each condition and are expressed as means+/−SD. To assess the […] effect of idoxuridine against 6-OHDA-toxicity data were analyzed using a 2-way ANOVA followed by a Bonferroni correction test. Each cell line was statistically analyzed separately, with pretreatment and 6-OHDA treatment as variables; or GPR37 expression and 6-OHDA-treatment as variables. For simplicity, only idoxuridine related significance is indicated; significances between positive and negative controls are not shown; ****p<0.0001, ***p<0.001, **p<0.01. Test compound (5 μL) of desired concentration (Idoxuridine, final concentration 2 μM); positive control (dibutyryl-cAMP, final concentration 1 mM); and negative control (DMSO, final concentration 0.1%) were plated in a 96-well plate. […] Absorbance was measured at 570 nm (formazan product) and at 650 nm (reference) using a Tecan Spark® 10M microplate reader. […]

N2a-GPR37-tGFP cells = experiment: Cytoprotection against 6-OHDA (MTT assay), N2a-GPR37-tGFP cells; details: 2 μM pretreatment 72 h, then 6-OHDA 24 h; compared with N2a-WT cells
Protocol: as §1

[1] = system: GPR37-tGFP overexpressing cells; experiment: Cytoprotection against Eeyarestatin (EeI), GPR37-tGFP overexpressing cells
Protocol: FIG. 9: Cytoprotection of Idoxuridine against Eel. Eeyarestatin (Eel) is a potent inhibitor of endoplasmic reticulum associated protein degradation (ERAD) pathway, specifically targeting p97. Eel-mediated reduction of cell viability is counteracted by idoxuridine in both GPR37-tGFP overexpressing cells (A) and WT (B) cells. Data represented as mean+SD. Analysis performed via one-way ANOVA with Neuman-Keuls post-test for both Figures. *** indicates p<0.001.
Eeyarestatin (EeI) is a potent inhibitor of endoplasmic reticulum associated protein degradation (ERAD) pathway, specifically targeting p97.

## O=c1[nH]c(=O)n([C@H]2C[C@H](O)[C@@H](CO)O2)cc1I [Idoxuridine, 2′-deoxy-5-iodouridine]
WT cells
  effect on H2O2-induced reduction of cell viability: counteracted
N2a-WT cells
  cytoprotective effect against 6-OHDA (cell viability, MTT): protective
N2a-GPR37-tGFP cells
  cytoprotective effect against 6-OHDA (cell viability, MTT): significantly higher effect
[1]
  effect on EeI-mediated reduction of cell viability: counteracted
